Laboratory results taken from patent US10233151B2, “Use of a novel 3-aryl-4-catechol-pyrrole-N-propanol compound and the derivatives thereof to treat cancer and diseases related to excessive angiogenesis” (Centre National de la Recherche Scientifique (CNRS), priority 2014, dated 2019).

What was measured:
[1] = EPR competition with BMPO, superoxide anion from KO2 in DMSO (organic phase); conditions: KO2 5 mM in DMSO, BMPO 25 mM, room temperature; read-out: IC50, inhibition of the formation of the BMPO superoxide adduct
Method: The reactivity of compound (1) with superoxide anion in the organic phase was studied by EPR at room temperature using a competition method with the superoxide trapping reagent BMPO (5-tent-butoxycarbonyl-5-methyl-1-pyrroline N-oxide) (FIG. 1A). The superoxide anion source is potassium salt (KO2) used at 5 mM in DMSO after ultrasound-assisted dissolution. The concentrations used for compound (1) are between 0.31 and 40 μM. The trapping reagent BMPO is used at a final concentration of 25 mM. These experiments were carried out with a MiniScope MS 100 EPR spectrometer (Magnettech GmbH, Germany), operating at a frequency of 9.5 GHz (X-band) with the following parameters: magnetic field: 336.0±9.9 mT; sweep time: 20 s; sampling: 4096 points; modulation amplitude: 0.10 mT; modulation frequency: 100 kHz; gain: 900; microwave power: 100 mW.

U87 cells = test: VEGF secretion by ELISA, U87 culture supernatant; type: cell-based, human; conditions: U87, normoxic and hypoxic (2% O2) conditions, concentrations of 5 to 50, 24 hours
Method: At the tenth day of embryonic development, glioblastoma cells (U87, 5×10^6 in 20 μL) were deposited on the chorioallantoic membrane. Two days after the graft, compound (1) at a concentration of 50 μM in a volume of 20 μL was deposited on the surface of the tumor formed. This treatment was repeated every 24 hours for 5 days. The control group was treated with solvent. The test was carried out on 20 eggs bearing glioblastoma tumors for each group. Images of the tumors were taken at day 3 (24 hours after treatment), at day 5 (3 days after treatment) and at day 7 (5 days after treatment) of tumor development. […] In order to determine the antiangiogenic mechanism of compound (1), VEGF was assayed by the ELISA method (Invitrogen, Novex technology), from the culture supernatant of U87 and HCT-116 cells, under normoxic and hypoxic conditions.

[2] = system: chick embryo chorioallantoic membrane; test: In ovo physiological angiogenesis on chick embryo chorioallantoic membrane; type: in vivo; conditions: 20 μL of 50 μM solution on CAM, seventh day of embryonic development
Method: The effect of compound (1) on physiological angiogenesis was evaluated using the chick embryo chorioallantoic membrane (CAM) model which constitutes a richly vascularized tissue.
At the seventh day of embryonic development, 20 μL of the 50 μM solution of compound (1) was deposited on the chorioallantoic membrane whereas the control membranes were treated with solvent.

[3] = system: endothelial cells (HUVEC); test: Survival of endothelial cells in proliferative or quiescent phase; type: cell-based, human; conditions: 48 hours
Method: In order to understand the difference in the observed effects of compound (1) according to whether the vasculature is already formed or is growing “de novo”, vascular endothelial cells were cultured at two different cell densities so as to obtain proliferative phase cells or quiescent cells, then treated or not by compound (1), at 10 μM (IC50 value: 8 μM) for 48 hours. […] Compound (1) may thus be used to treat diseases associated with excessive and abnormal angiogenesis, like cancer or ARMD.

K562 cells = test: Cell growth test (CellTiter-Blue), K562; type: cell-based; conditions: Homo sapiens; K562, normoxia, 72 hours; read-out: IC50 (50% decrease in cell growth)
Method: (§1) The biological activity of compound (1), as well as that of its structural analogues, was studied in vitro on 7 different cancer cell lines: • HCT-116 (colorectal cancer) • U87 (glioblastoma) • K562 (myeloid leukemia) and K562 R • MDA-MB 231 (mammary adenocarcinoma) • MCF-7 (mammary adenocarcinoma) • A549 (pulmonary alveolar adenocarcinoma)
(§2) The cells selected for this study were incubated at 37° C. in the presence of compound (1) added in the culture medium at various concentrations and at various times. The set of experiments carried out made it possible to determine the degree of cytotoxicity of the compound tested (IC50), its capacity to induce cell death by apoptosis, in close dependence on extracellular superoxide anion for its activation.
(§3) The effect of compound (1) on the growth of HCT-116, U87, K562, K562R, MDA-MB 231, MCF-7 and A549 cells, cultured in normoxia, was evaluated using a cell growth test (CellTiter-Blue™ Cell Viability Assay, Promega).

K562R cells = test: Cell growth test (CellTiter-Blue), K562R; type: cell-based; conditions: Homo sapiens, K-562R, normoxia, 72 hours, read-out: IC50 (50% decrease in cell growth)
Method: as §1, §2, §3

HCT-116 cells [4] = test: Cellular superoxide anion signal, DHE probe, HPLC-fluorimetry; type: cell-based; conditions: HCT-116, 50 μM for 3 hours, DHE 10 μM 20 minutes, normoxia
Method: The effect of compound (1) on superoxide anion was studied following the treatment of HCT-116 cells with 50 μM compound (1) for 3 hours and followed by incubation with the probe dihydroethidium (DHE) (10 μM) for 20 minutes. After removing the culture medium and washing with ice-cold DPBS, the cells were collected in 1 ml of cold DPBS. After centrifugation at 1000 g for 5 minutes, the pellet was taken up in 150 μl of PBS with Triton X100 (0.1%), shaken and centrifuged at 1000 g for 5 minutes. The supernatant was mixed with a 0.2 M solution of HClO4 in methanol, shaken and placed on ice for 2 hours. After centrifugation at 20000 g for 30 minutes, the supernatant is analyzed by HPLC coupled with fluorescence (λex=510 nm, λcm=595 nm). In the untreated cells (continuous line), the first peak at tR=5.16 minutes corresponds to the oxidized form “E+”, product of oxidation by peroxidases, and the second peak at tR =5.71 minutes to the oxidized form 2-OH E+, specific to the interaction with superoxide anion. In the treated cells, the first peak at tR=5.29 minutes corresponding to the oxidized form “E+” is increased, whereas the second peak at tR=5.71 minutes, corresponding to the oxidized form 2OH E+, specific to the interaction with superoxide anion, was suppressed. […] (FIG. 10).

HCT-116 cells [5] = test: Cell survival after SOD pretreatment; type: cell-based; conditions: HCT-116, SOD1 50 U/ml 1 hour pretreatment
Method: In order to determine the role of superoxide anion, produced by the cells, in the activation of compound (1), HCT-116 cells were pretreated for 1 hour with the enzyme superoxide dismutase (SOD1) at 50 U/ml, then treated with compound (1). The cells were analyzed to evaluate, firstly, cell survival in normoxia (72 hours of treatment) and in hypoxia (48 hours of treatment). Secondly, the formation of condensed chromatin in normoxia and the activity of caspases 3 and 7 in normoxia were evaluated.

In the case of `OCCCn1cc(-c2ccccc2)c(-c2ccc(O)c(O)c2)c1` [compound (1)], the IC50 [1] is reported as 2500 nM, the VEGF secretion (U87 cells) is reported as “does not modify VEGF secretion” and the “effect on physiological angiogenesis” value [2] is reported as “absence of the effect”. For the same compound, the “effect on quiescent endothelial cells” value ([3]; 10 μM, quiescent cells) was “acts only on endothelial cells in the proliferative phase”, the inhibition at 10 µM ([3]; Homo sapiens, HUVEC, 10 μM, proliferative phase) was 78% and the IC50 ([3]; Homo sapiens, HUVEC, read-out: IC50 value, vascular endothelial cells) was 8 µM. The IC50 (K562 cells) was 232 µM, the IC50 (K562R cells) was 12.5 µM and the “2-OH E+ signal (DHE oxidized by superoxide anion)” value (HCT-116 cells [4]) was “inhibition of the 2OH E+ signal”. The “E+ signal (DHE oxidized by peroxidases or catalase)” value (HCT-116 cells [4]) was “increase in the E+ signal”, the “cytotoxic effect after SOD pretreatment” value (HCT-116 cells [5]; 10 μM, normoxia, 72 hours) was “completely blocks the cytotoxic effect” and the “cytotoxic effect after SOD pretreatment” value (HCT-116 cells [5]; 25 μM, hypoxia, 48 hours) was “completely blocks the cytotoxic effect”.
